Assay results as given in PMC12365113 (IBRO Neuroscience Reports, 2025).
Marks after values point to notes of the source that are not given here.

Tests used:
BSA protein glycation = BSA protein glycation (Bos taurus, UniProt P02769); assay: Anti-glycation assay; type: biochemical, Bovine; conditions: BSA + dextrose, 9 days at 37 °C, mean ± SD of triplicate
Aβ42 = Aβ42 (Homo sapiens, UniProt P05067); assay: ThT assay of inhibition of Aβ aggregation; type: biochemical
Sequence of Aβ42 (P05067 672-713): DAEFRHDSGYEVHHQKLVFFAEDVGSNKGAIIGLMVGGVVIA

Sequence of BSA protein glycation (P02769 25-607): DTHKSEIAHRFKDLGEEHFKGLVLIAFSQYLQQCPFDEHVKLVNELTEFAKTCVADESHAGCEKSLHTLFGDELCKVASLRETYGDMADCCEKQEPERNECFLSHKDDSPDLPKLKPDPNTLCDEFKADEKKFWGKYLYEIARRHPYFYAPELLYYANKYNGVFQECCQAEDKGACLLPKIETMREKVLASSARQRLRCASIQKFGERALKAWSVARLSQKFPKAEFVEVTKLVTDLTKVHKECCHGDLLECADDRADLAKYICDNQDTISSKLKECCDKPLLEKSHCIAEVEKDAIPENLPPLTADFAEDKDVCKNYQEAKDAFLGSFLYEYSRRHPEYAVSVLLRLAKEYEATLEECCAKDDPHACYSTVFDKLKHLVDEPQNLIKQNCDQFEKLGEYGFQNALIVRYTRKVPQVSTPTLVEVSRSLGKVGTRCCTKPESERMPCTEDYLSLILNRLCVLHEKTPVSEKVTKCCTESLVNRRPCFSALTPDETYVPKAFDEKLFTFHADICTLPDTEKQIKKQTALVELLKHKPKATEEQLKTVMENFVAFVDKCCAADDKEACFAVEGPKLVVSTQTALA

Row | Structure (SMILES) | Half-maximal inhibitory (IC50) values Protein glycation (BSA protein glycation) | IC50 (Aβ42) [µM]
1 | N=C(N)NN [Aminoguanidine] | 15.27 ± 0.37^b μg/mL | 
2 | O=S1(=O)OC(c2ccc(O)cc2)(c2ccc(O)cc2)c2ccccc21 [Phenol Red] |  | 94.7
